Measurements from patent US10889610B2, “Alpha-D-galactoside inhibitors of galectins” (GALECTO BIOTECH AB, priority 2016, dated 2021).

Target: galectin-3 (Homo sapiens (Human), UniProt P17931)
Test: Fluorescence anisotropy assay, galectin-3 affinity
Format: binding
Conditions: inhibition of galectin / fluorescein tagged saccharide probe interaction
Protocol: Anal. Biochem. 334: 36-47, (Sörme et al., 2004) and Monovalent interactions of Galectin-1 By Salomonsson, Emma; Larumbe, Amaia; Tejler, Johan; Tullberg, Erik; Rydberg, Hanna; Sundin, Anders; Khabut, Areej; Frejd, Torbjorn; Lobsanov, Yuri D.; Rini, James M.; et al, From Biochemistry (2010), 49(44), 9518-9532, (Salomonsson et al., 2010). […] 100 nM albumin was included as a carrier to prevent protein loss at such low concentration of galectin.

Sequence of galectin-3 (P17931 whole entry): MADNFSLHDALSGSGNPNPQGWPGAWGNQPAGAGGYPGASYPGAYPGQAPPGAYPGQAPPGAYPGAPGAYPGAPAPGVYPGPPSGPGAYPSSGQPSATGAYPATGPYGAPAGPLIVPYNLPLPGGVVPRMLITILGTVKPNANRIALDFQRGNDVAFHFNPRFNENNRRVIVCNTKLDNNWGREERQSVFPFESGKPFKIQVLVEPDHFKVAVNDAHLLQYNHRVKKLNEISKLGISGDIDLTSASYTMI

Going from `N#Cc1cnc(S[C@H]2O[C@H](CO)[C@H](O)[C@H](n3cc(-c4cc(F)c(F)c(F)c4)nn3)[C@H]2O)cc1Br` [Example 1, 4-Bromo-5-cyano-2-pyridyl 3-deoxy-3-[4-(3,4,5-trifluorophenyl)-1H-1,2,3-triazol-1-yl]-1-thio-α-D-galactopyranoside] to `N#Cc1cnc(S[C@H]2O[C@H](CO)[C@H](O)[C@H](n3cc(-c4cc(F)c(F)c(F)c4)nn3)[C@H]2O)cc1Cl` [Example 2, 4-Chloro-5-cyano-2-pyridyl 3-deoxy-3-[4-(3,4,5-trifluorophenyl)-1H-1,2,3-triazol-1-yl]-1-thio-α-D-galactopyranoside], the Kd rises from 0.027 µM to 0.057 µM (2.1-fold).

`OC[C@H]1O[C@H](Sc2ccnc(Cl)c2)[C@H](O)[C@@H](n2cc(-c3cc(F)c(F)c(F)c3)nn2)[C@H]1O` [Example 3, 2-Chloro-4-pyridyl 3-deoxy-3-[4-(3,4,5-trifluorophenyl)-1H-1,2,3-triazol-1-yl]-1-thio-α-D-galactopyranoside] and `OC[C@H]1O[C@H](Sc2cc(Cl)ccn2)[C@H](O)[C@@H](n2cc(-c3cc(F)c(F)c(F)c3)nn2)[C@H]1O` [Example 7, 4-Chloro-2-pyridyl 3-deoxy-3-[4-(3,4,5-trifluorophenyl)-1H-1,2,3-triazol-1-yl]-1-thio-α-D-galactopyranoside] are within 1.5-fold of each other in Kd: 0.086 µM for the first, 0.12 µM for the second.

`N#Cc1ncc(Cl)cc1S[C@H]1O[C@H](CO)[C@H](O)[C@H](n2cc(-c3cc(F)c(F)c(F)c3)nn2)[C@H]1O` [Example 4, 5-Chloro-2-cyano-3-pyridyl 3-deoxy-3-[4-(3,4,5-trifluorophenyl)-1H-1,2,3-triazol-1-yl]-1-thio-α-D-galactopyranoside] and `N#Cc1ncc(Br)cc1S[C@H]1O[C@H](CO)[C@H](O)[C@H](n2cc(-c3cc(F)c(F)c(F)c3)nn2)[C@H]1O` [Example 6, 5-Bromo-2-cyano-3-pyridyl 3-deoxy-3-[4-(3,4,5-trifluorophenyl)-1H-1,2,3-triazol-1-yl]-1-thio-α-D-galactopyranoside] are within 1.5-fold of each other in Kd: 0.029 µM for the first, 0.022 µM for the second.

`N#Cc1ncc(S[C@H]2O[C@H](CO)[C@H](O)[C@H](n3cc(-c4cc(F)c(F)c(F)c4)nn3)[C@H]2O)cc1Br` [Example 5, 5-Bromo-6-cyano-3-pyridyl 3-deoxy-3-[4-(3,4,5-trifluorophenyl)-1H-1,2,3-triazol-1-yl]-1-thio-α-D-galactopyranoside] and `N#Cc1ncc(S[C@H]2O[C@H](CO)[C@H](O)[C@H](n3cc(-c4cc(F)c(Cl)c(F)c4)nn3)[C@H]2O)cc1Br` [Example 12, 5-Bromo-6-cyano-3-pyridyl 3-deoxy-3-[4-(4-chloro-3,5-difluorophenyl)-1H-1,2,3-triazol-1-yl]-1-thio-α-D-galactopyranoside] are within 1.5-fold of each other in Kd: 0.022 µM for the first, 0.016 µM for the second.

`OC[C@H]1O[C@H](Sc2cncc(Cl)c2)[C@H](O)[C@@H](n2cc(-c3cc(F)c(Cl)c(F)c3)nn2)[C@H]1O` [Example 9, 5-Chloro-3-pyridyl 3-deoxy-3-[4-(4-chloro-3,5-difluorophenyl)-1H-1,2,3-triazol-1-yl]-1-thio-α-D-galactopyranoside] and `Cc1c(F)cc(-c2cn([C@@H]3[C@@H](O)[C@@H](Sc4cncc(Cl)c4)O[C@H](CO)[C@@H]3O)nn2)cc1F` [Example 16, 5-Chloro-3-pyridyl 3-deoxy-3-[4-(3,5-difluoro-4-methylphenyl)-1H-1,2,3-triazol-1-yl]-1-thio-α-D-galactopyranoside] are within 1.5-fold of each other in Kd: 0.022 µM for the first, 0.018 µM for the second.

Compared with `N#Cc1ncc(S[C@H]2O[C@H](CO)[C@H](O)[C@H](n3cc(-c4cc(F)c(Cl)c(F)c4)nn3)[C@H]2O)cc1Cl` [Example 10, 5-Chloro-6-cyano-3-pyridyl 3-deoxy-3-[4-(4-chloro-3,5-difluorophenyl)-1H-1,2,3-triazol-1-yl]-1-thio-α-D-galactopyranoside], `N#Cc1ncc(Cl)cc1S[C@H]1O[C@H](CO)[C@H](O)[C@H](n2cc(-c3cc(F)c(Cl)c(F)c3)nn2)[C@H]1O` [Example 13, 5-Chloro-2-cyano-3-pyridyl 3-deoxy-3-[4-(4-chloro-3,5-difluorophenyl)-1H-1,2,3-triazol-1-yl]-1-thio-α-D-galactopyranoside] is 1.6-fold lower in Kd: 0.018 µM for the first, 0.011 µM for the second.

Going from `N#Cc1ncc(Br)cc1S[C@H]1O[C@H](CO)[C@H](O)[C@H](n2cc(-c3cc(F)c(Cl)c(F)c3)nn2)[C@H]1O` [Example 11, 5-Bromo-2-cyano-3-pyridyl 3-deoxy-3-[4-(4-chloro-3,5-difluorophenyl)-1H-1,2,3-triazol-1-yl]-1-thio-α-D-galactopyranoside] to `N#Cc1c(F)cc(-c2cn([C@@H]3[C@@H](O)[C@@H](Sc4cncc(Cl)c4)O[C@H](CO)[C@@H]3O)nn2)cc1F` [Example 14, 5-Chloro-3-pyridyl 3-deoxy-3-[4-(4-cyano-3,5-difluorophenyl)-1H-1,2,3-triazol-1-yl]-1-thio-α-D-galactopyranoside], the Kd rises from 0.011 µM to 0.18 µM (16-fold).

Going from `OC[C@H]1O[C@H](Sc2cncc(Cl)c2)[C@H](O)[C@@H](n2cc(-c3cc(F)c(C(F)(F)F)c(F)c3)nn2)[C@H]1O` [Example 15, 5-Chloro-3-pyridyl 3-deoxy-3-[4-(3,5-difluoro-4-trifluoromethyl-phenyl)-1H-1,2,3-triazol-1-yl]-1-thio-α-D-galactopyranoside] to `OC[C@H]1O[C@H](Sc2cncc(Cl)c2)[C@H](O)[C@@H](n2cc(-c3cc(F)c(Br)c(F)c3)nn2)[C@H]1O` [Example 17, 5-Chloro-3-pyridyl 3-deoxy-3-[4-(4-bromo-3,5-difluorophenyl)-1H-1,2,3-triazol-1-yl]-1-thio-α-D-galactopyranoside], the Kd falls from 0.097 µM to 0.028 µM (3.5-fold).

`OC[C@H]1O[C@H](Sc2cncc(Cl)c2)[C@H](O)[C@@H](n2cc(-c3cc(F)c(Cl)c(Cl)c3)nn2)[C@H]1O` [Example 18, 5-Chloro-3-pyridyl 3-deoxy-3-[4-(3,4-dichloro-5-fluorophenyl)-1H-1,2,3-triazol-1-yl]-1-thio-α-D-galactopyranoside] and `OC[C@H]1O[C@H](Sc2cncc(Cl)c2)[C@H](O)[C@@H](n2cc(-c3ccc(Cl)c(F)c3)nn2)[C@H]1O` [Example 19, 5-Chloro-3-pyridyl 3-deoxy-3-[4-(4-chloro-3-fluorophenyl)-1H-1,2,3-triazol-1-yl]-1-thio-α-D-galactopyranoside] are within 1.5-fold of each other in Kd: 0.027 µM for the first, 0.034 µM for the second.

`OC[C@H]1O[C@H](Sc2ccc(Cl)c(Cl)c2)[C@H](O)[C@@H](n2cc(-c3cncc(F)c3)nn2)[C@H]1O` [Example 20, 3,4-Dichlorophenyl 3-deoxy-3-[4-(5-fluoro-3-pyridyl)-1H-1,2,3-triazol-1-yl]-1-thio-α-D-galactopyranoside] and `OC[C@H]1O[C@H](Sc2ccc(Cl)c(Cl)c2)[C@H](O)[C@@H](n2cc(-c3cncc(Cl)c3)nn2)[C@H]1O` [Example 22, 3,4-Dichlorophenyl 3-deoxy-3-[4-(5-chloro-3-pyridyl)-1H-1,2,3-triazol-1-yl]-1-thio-α-D-galactopyranoside] are within 1.5-fold of each other in Kd: 0.75 µM for the first, 0.694 µM for the second.

`OC[C@H]1O[C@H](Sc2cncc(Cl)c2)[C@H](O)[C@@H](n2cc(-c3ccc(Cl)c(Cl)c3)nn2)[C@H]1O` [Example 21, 5-Chloro-3-pyridyl 3-deoxy-3-[4-(3,4-dichlorophenyl)-1H-1,2,3-triazol-1-yl]-1-thio-α-D-galactopyranoside] showed a Kd of 0.031 µM.

System: galectins
Test: not given
Conditions: relative to lactose, all galectins; cited from earlier work

In the case of `O=C[C@H](O)[C@@H](O)[C@@H](O)[C@H](O)CO` [D-galactose], the “affinity, times lower than lactose” value is given as 50-100 times.

Same assay, conditions: reviewed by Leffler 2001, Leffler et al. 2004; read-out: Kd, all galectins; cited from earlier work

For `OC[C@H]1O[C@@H](O[C@H]2[C@H](O)[C@@H](O)C(O)O[C@@H]2CO)[C@H](O)[C@@H](O)[C@H]1O` (some centres unmarked) [lactose], the Kd is given as 500 to 1000 µM.

Target: galectin-1 (Homo sapiens (Human), UniProt P09382)
Test: Fluorescence anisotropy assay, galectin-1 affinity
Format: binding
Conditions: inhibition of galectin / fluorescein tagged saccharide probe interaction
Protocol: The affinity of Example 1-22 for galectins were determined by a fluorescence anisotropy assay where the compound was used as an inhibitor of the interaction between galectin and a fluorescein tagged saccharide probe as described Sörme, P., Kahl-Knutsson, B., Huflejt, M., Nilsson, U. J., and Leffler H. (2004) Fluorescence polarization as an analytical tool to evaluate galectin-ligand interactions. Anal. Biochem. 334: 36-47, (Sörme et al., 2004) and Monovalent interactions of Galectin-1 By Salomonsson, Emma; Larumbe, Amaia; Tejler, Johan; Tullberg, Erik; Rydberg, Hanna; Sundin, Anders; Khabut, Areej; Frejd, Torbjorn; Lobsanov, Yuri D.; Rini, James M.; et al, From Biochemistry (2010), 49(44), 9518-9532, (Salomonsson et al., 2010). […] 100 nM albumin was included as a carrier to prevent protein loss at such low concentration of galectin.

Sequence of galectin-1 (P09382 whole entry): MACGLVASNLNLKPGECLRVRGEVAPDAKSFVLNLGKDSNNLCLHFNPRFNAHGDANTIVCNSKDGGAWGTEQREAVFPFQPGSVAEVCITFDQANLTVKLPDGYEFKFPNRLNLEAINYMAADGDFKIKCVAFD

First: N#Cc1cnc(S[C@H]2O[C@H](CO)[C@H](O)[C@H](n3cc(-c4cc(F)c(F)c(F)c4)nn3)[C@H]2O)cc1Br [Example 1, 4-Bromo-5-cyano-2-pyridyl 3-deoxy-3-[4-(3,4,5-trifluorophenyl)-1H-1,2,3-triazol-1-yl]-1-thio-α-D-galactopyranoside]
Second: OC[C@H]1O[C@H](Sc2cc(Cl)ccn2)[C@H](O)[C@@H](n2cc(-c3cc(F)c(F)c(F)c3)nn2)[C@H]1O [Example 7, 4-Chloro-2-pyridyl 3-deoxy-3-[4-(3,4,5-trifluorophenyl)-1H-1,2,3-triazol-1-yl]-1-thio-α-D-galactopyranoside]
The Kd of the first is 2.7-fold lower: 2.6 µM for the first, 6.9 µM for the second. The first binds more tightly here.

`N#Cc1ncc(S[C@H]2O[C@H](CO)[C@H](O)[C@H](n3cc(-c4cc(F)c(Cl)c(F)c4)nn3)[C@H]2O)cc1Br` [Example 12, 5-Bromo-6-cyano-3-pyridyl 3-deoxy-3-[4-(4-chloro-3,5-difluorophenyl)-1H-1,2,3-triazol-1-yl]-1-thio-α-D-galactopyranoside] gave a Kd of 7 µM.
